# In patent publication US20230113817A1, “DILEUCINE COMPOSITIONS AND METHODS OF USE THEREOF FOR FAT LOSS” (Ingenious Ingredients, LP, priority 2021, published 2023):
# Key:
# [1] = system: body fat of overweight subjects; test: Resistance exercise training study, body composition and body fat; format: in vivo, human; conditions: 2 g per day, n=7 per treatment group, beginning vs conclusion of study (FIG. 2)
# Description: A randomized, double-blind, cross over design, resistance exercise training study was preformed to assess the impact of administration of the instantly disclosed compositions on subject body composition and body fat. Subjects were “overweight”, BMI of 26.8 in the leucine group, 25.0 in the dileucine group. Treatment groups received either leucine (2 g per day), dileucine (2 g per day), or placebo (n=7, per treatment group). Body measurements were taken at the beginning and conclusion of the study.
# [2] = system: body weight of male Swiss albino mice; test: Weight management study in treadmill-trained mice; format: in vivo; conditions: daily treatment for 28 days
# Procedure: Animal studies were conducted to investigate the effects of test substances (treatment) on weight management in male Swiss albino mice. Animals were divided into 17 groups with each group consisting of 8 animals. The test groups were treated with the test substances daily for 28 days. All the animals were subjected to treadmill training for 5 days a week for 28 days. Measurements were taken on day 0 and 28th day.
smiles,measurement,setting,value
"CC(C)C[C@H](NC(=O)[C@@H](N)CC(C)C)C(=O)O [Dileucine, L-Leucyl-L-leucine]",body fat following resistance training,[1],decreased body fat
same,Weight in grams,"[2]; treadmill training 5 days a week, dileucine 411 mg/kg, partner doses per Table 1",33.23 grams
same,Percent Difference from Placebo,"[2]; weight vs control group, treadmill training, doses per Table 1",−2.69%
CC(C)C[C@H](N)C(=O)O [leucine],body fat following resistance training,[1],modest increases in body fat
